Experimental data reported in paper PMC9398908, “GLP-1-mediated delivery of tesaglitazar improves obesity and glucose metabolism in male mice” (Nature Metabolism, 2022).

Legend:
[1] = molecular target: T1, hGLP-1R (Homo sapiens, UniProt P43220); assay: Ligand-induced hGLP-1R-GFP Mini-Gαs recruitment (BRET) in mouse MIN6 β-cells; assay type: cell-based; details: Fig. 1d, in words
T1 construct: host or cells: HEK293T, transient transfection
Description: (§1) HEK293T cells (700,000 per well) were seeded in six-well plates and incubated to 70% confluency in DMEM (10% FBS, 1% Pen/Strep). Twenty-four hours following seeding, transient transfections were performed using Lipofectamine 2000 (catalogue no. 11668019, Invitrogen) according to the manufacturer’s protocol without including additional transformation carrier DNA.
Twenty-four hours following transfection, HEK293T cells or MIN6 cells were washed with PBS and resuspended in FluoroBrite phenol red-free complete media (catalogue no. A1896701, Life Technologies) containing 5% FBS and 2 mM of L-glutamine (catalogue no. 25030081, Life Technologies). 100,000 cells per well were plated into poly-D-lysine-coated (catalogue no. P6403, Sigma-Aldrich) 96-well white polystyrene LumiNunc plates (catalogue no. 10072151, Thermo Fisher Scientific). After 24 h, the media was replaced with PBS (catalogue no. 10010056, Gibco) containing 10 μM of coelenterazine-h (catalogue no. S2011, Promega) or 1:500 dilution of NanoGlo (catalogue no. N1110, Promega). BRET measurements were taken every 30 s–2 min using a PHERAstar FS multi-mode microplate reader. […] The resulting ligand-specific ratiometric BRET signals were normalized to vehicle producing the ‘ligand-induced BRET ratio’[37], followed by an additional normalization step to well-specific baseline readings.

[2] = molecular target: T2, PPARγ2/RXR (Homo sapiens, UniProt P37231); assay: RXR-Rluc8 / PPARγ2-YFP heterodimerization (BRET) in hGLP-1R(−) HEK293T cells; assay type: cell-based; details: GLP-1R (-), 1μM
T2 construct: host or cells: HEK293T, with (A8) or without (A9) co-expressed hGLP-1R
T2 sequence (P37231 1-505): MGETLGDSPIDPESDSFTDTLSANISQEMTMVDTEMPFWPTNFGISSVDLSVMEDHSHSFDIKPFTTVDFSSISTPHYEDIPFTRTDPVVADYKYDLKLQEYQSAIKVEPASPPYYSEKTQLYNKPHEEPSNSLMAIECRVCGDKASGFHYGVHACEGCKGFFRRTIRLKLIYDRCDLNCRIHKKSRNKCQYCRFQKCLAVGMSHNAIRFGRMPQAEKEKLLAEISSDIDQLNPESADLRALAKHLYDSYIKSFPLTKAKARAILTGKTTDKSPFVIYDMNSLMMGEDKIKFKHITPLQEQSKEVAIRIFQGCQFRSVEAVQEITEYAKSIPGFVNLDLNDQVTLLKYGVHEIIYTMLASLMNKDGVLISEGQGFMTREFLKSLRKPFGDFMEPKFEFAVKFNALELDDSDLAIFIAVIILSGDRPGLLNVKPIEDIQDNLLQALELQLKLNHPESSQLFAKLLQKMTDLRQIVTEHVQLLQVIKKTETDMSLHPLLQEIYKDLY
T2 sequence (P19793 1-462 partner): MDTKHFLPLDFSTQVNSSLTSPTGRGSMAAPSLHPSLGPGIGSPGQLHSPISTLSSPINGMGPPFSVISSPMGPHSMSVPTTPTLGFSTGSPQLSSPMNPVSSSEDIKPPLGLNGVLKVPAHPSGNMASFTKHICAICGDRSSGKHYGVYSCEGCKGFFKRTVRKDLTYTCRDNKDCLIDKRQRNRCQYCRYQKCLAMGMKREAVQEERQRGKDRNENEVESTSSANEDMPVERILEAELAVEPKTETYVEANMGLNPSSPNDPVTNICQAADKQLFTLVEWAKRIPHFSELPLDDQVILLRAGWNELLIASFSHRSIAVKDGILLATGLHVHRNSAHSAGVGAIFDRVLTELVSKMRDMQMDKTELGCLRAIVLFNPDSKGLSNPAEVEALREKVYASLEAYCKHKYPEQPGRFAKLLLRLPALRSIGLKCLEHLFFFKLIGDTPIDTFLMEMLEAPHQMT
Description: as §1
Twenty-four hours following transfection, HEK293T cells or MIN6 cells were washed with PBS and resuspended in FluoroBrite phenol red-free complete media (catalogue no. A1896701, Life Technologies) containing 5% FBS and 2 mM of L-glutamine (catalogue no. 25030081, Life Technologies). 100,000 cells per well were plated into poly-D-lysine-coated (catalogue no. P6403, Sigma-Aldrich) 96-well white polystyrene LumiNunc plates (catalogue no. 10072151, Thermo Fisher Scientific). After 24 h, the media was replaced with PBS (catalogue no. 10010056, Gibco) containing 10 μM of coelenterazine-h (catalogue no. S2011, Promega) or 1:500 dilution of NanoGlo (catalogue no. N1110, Promega). BRET measurements were taken every 30 s–2 min using a PHERAstar FS multi-mode microplate reader. Baseline measurements were taken after an initial 5 min of incubation with coelenterazine-h or NanoGlo-containing PBS after which cells were then treated with either vehicle (PBS) or respective ligands. The resulting ligand-specific ratiometric BRET signals were normalized to vehicle producing the ‘ligand-induced BRET ratio’[37], followed by an additional normalization step to well-specific baseline readings. Ligand-induced measurements on the temporal scale is represented as the subsequent measurement after time point zero. Positive or negative incremental AUC (+iAUC/−iAUC) were calculated where noted. Each experiment was independently performed at least three times, each with at least three technical replicates for each group.
Untagged hGLP-1R was purchased from Sino Biological Inc. (catalogue no. HG13944-UT), hGLP-1R-GFP was a kind gift from D. Hodson (University of Birmingham), and hGLP-1R-Rluc8 was a kind gift from P. Sexton (Monash University, Melbourne, Australia). Gαs recruitment to the GLP-1R-GFP was quantified using mini-Gαs, a protein probe that translocates to ligand-bound Gαs-coupled G-protein coupled receptors. NES-Nluc-MiniGαs was a gift from K. Pfleger (Harry Perkins Institute of Medical Research, Nedlands, Western Australia, Australia). Intracellular cAMP was measured using the YFP-Epac-Rluc CAMYEL sensor[39]. hGLP-1R-RLUC8 internalization was quantified using the intracellular plasma membrane marker Venus-KRAS[40]. […] GLP-1R-Rluc8 lysosomal colocalization was measured using Lamp1-mNeonGreen. […] Time-dependent RXR/PPARγ heterodimerization was measured using RXR-Rluc8 and PPARγ2-YFP, both of which were kind gifts from V. Ollendorf[41].

T1 sequence (P43220 24-463): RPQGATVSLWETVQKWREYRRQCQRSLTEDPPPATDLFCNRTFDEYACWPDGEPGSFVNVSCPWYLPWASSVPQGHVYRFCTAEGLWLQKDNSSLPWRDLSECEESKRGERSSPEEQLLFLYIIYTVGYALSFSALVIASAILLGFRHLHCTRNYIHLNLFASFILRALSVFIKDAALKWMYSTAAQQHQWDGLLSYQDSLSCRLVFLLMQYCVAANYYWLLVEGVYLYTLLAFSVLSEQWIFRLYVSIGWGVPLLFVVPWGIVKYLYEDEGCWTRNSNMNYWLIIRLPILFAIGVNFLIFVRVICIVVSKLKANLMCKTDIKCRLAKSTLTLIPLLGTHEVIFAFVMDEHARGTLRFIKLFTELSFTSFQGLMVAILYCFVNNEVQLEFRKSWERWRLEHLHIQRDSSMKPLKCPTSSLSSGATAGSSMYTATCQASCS

- GLP-1R-mediated Gαs recruitment [1]: had no effect
- RXR/PPARγ Heterodimerization (AUC), +iAUC ([2]; replicate 1): 59.69
- RXR/PPARγ Heterodimerization (AUC), +iAUC ([2]; replicate 2): 107.20
- RXR/PPARγ Heterodimerization (AUC), +iAUC ([2]; replicate 3): 71.87
- RXR/PPARγ Heterodimerization (AUC), +iAUC ([2]; replicate 4): 114.00
SMILES: CCO[C@@H](Cc1ccc(OCCc2ccc(OS(C)(=O)=O)cc2)cc1)C(=O)O [tesaglitazar, (S)-2-ethoxy-3-(4-(4-((methylsulfonyl)oxy)phenethoxy)phenyl) propanoic acid]
